Test results: PMC7792585, “Trospium Chloride Transport by Mouse Drug Carriers of the Slc22 and Slc47 Families” (International Journal of Molecular Sciences, 2020)

T1: mMate2 (Mus musculus, UniProt Q3V050)
T1 construct: gene Slc47a2; full open reading frame
T1 sequence (Q3V050 1-573): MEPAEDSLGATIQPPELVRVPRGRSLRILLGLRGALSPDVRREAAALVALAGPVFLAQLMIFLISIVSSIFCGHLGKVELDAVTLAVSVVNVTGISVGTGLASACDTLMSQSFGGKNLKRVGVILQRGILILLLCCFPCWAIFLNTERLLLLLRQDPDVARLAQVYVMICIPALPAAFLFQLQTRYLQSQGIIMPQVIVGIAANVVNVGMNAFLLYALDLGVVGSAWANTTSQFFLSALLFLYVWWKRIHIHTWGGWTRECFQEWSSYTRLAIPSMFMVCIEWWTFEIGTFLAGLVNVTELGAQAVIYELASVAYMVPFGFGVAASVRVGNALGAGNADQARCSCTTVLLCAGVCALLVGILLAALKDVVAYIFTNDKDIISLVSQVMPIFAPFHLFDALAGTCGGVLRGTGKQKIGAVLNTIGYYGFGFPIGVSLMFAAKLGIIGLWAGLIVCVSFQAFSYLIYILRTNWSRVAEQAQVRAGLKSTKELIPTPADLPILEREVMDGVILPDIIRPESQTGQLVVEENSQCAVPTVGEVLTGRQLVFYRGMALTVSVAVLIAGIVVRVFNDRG

B1: mMate1 (Mus musculus) (protein)
chain: MERTEESAPGPGGADAASERRGLRCLLLPGFLEELRALLVLAGPAFLAQLMMFLISFISSVFCGHLGKLELDAVTLAIAVINVTGISVGHGLSSACDTLISQTYGSQNLKHVGVILQRGTLILLLCCFPCWALFINTEQILLLFRQDPDVSRLTQTYVMIFIPALPAAFLYTLQVKYLLNQGIVLPQIMTGIAANLVNALANYVFLYHLHLGVMGSALANTISQFALAIFLFLYILWRRLHQATWGGWSWECLQDWASFLRLAIPSMLMLCIEWWAYEVGSFLSGILGMVELGAQSITYELAIIVYMIPSGFSVAANVRVGNALGAGNIDQAKKSSAISLIVTELFAVTFCVLLLGCKDLVGYIFTTDRDIVALVAQVIPIYAVSHLFEGLACTCGGILRGTGNQKVGAIVNAIGYYVIGLPIGIALMFAAKLGVIGLWSGIIICTTCQTTCFLAFIARLNWKRACQQAQVHANLKVNVALNSAVSHEPAHPVCPESHGEIMMTDLEKKDETQLDQPMNQQQALPIRPKDSNKLSGKQLALRRGLLLLGVVLVLVGGILVRVYIRIE
notes: full open reading frame
B2: mOct1 (Mus musculus) (protein)
chain: MPTVDDVLEHVGEFGWFQKQAFLLLCLISASLAPIYVGIVFLGFTPDHHCRSPGVAELSQRCGWSPAEELNYTVPGLGSAGEASFLSQCMKYEVDWNQSTLDCVDPLSSLAANRSHLPLSPCEHGWVYDTPGSSIVTEFNLVCGDAWKVDLFQSCVNLGFFLGSLVVGYIADRFGRKLCLLVTTLVTSLSGVLTAVAPDYTSMLLFRLLQGMVSKGSWVSGYTLITEFVGSGYRRTTAILYQVAFTVGLVGLAGVAYAIPDWRWLQLAVSLPTFLFLLYYWFVPESPRWLLSQKRTTQAVRIMEQIAQKNRKVPPADLKMMCLEEDASERRSPSFADLFRTPSLRKHTLILMYLWFSCAVLYQGLIMHVGATGANLYLDFFYSSLVEFPAAFIILVTIDRIGRIYPIAASNLVAGAACLLMIFIPHELHWLNVTLACLGRMGATIVLQMVCLVNAELYPTFIRNLGMMVCSALCDLGGIFTPFMVFRLMEVWQALPLILFGVLGLSAGAVTLLLPETKGVALPETIEEAENLGRRKSKAKENTIYLQVQTGKSPHT
notes: full open reading frame
B3: mOct2 (Mus musculus) (protein)
chain: MPTVDDILEHIGEFHLFQKQTFFLLALLSGAFTPIYVGIVFLGFTPNHHCRSPGVAELSQRCGWSPAEELNYTVPGLGSAGEVSFLSQCMRYEVDWNQSTLDCVDPLSSLAANRSHLPLSPCEHGWVYDTPGSSIVTEFNLVCAHSWMLDLFQSLVNVGFFIGAVGIGYLADRFGRKFCLLVTILINAISGVLMAISPNYAWMLVFRFLQGLVSKAGWLIGYILITEFVGLGYRRTVGICYQIAFTVGLLILAGVAYALPNWRWLQFAVTLPNFCFLLYFWCIPESPRWLISQNKNAKAMKIIKHIAKKNGKSVPVSLQSLTADEDTGMKLNPSFLDLVRTPQIRKHTLILMYNWFTSSVLYQGLIMHMGLAGDNIYLDFFYSALVEFPAAFIIILTIDRIGRRYPWAVSNMVAGAACLASVFIPDDLQWLKITVACLGRMGITIAYEMVCLVNAELYPTYIRNLAVLVCSSMCDIGGIVTPFLVYRLTDIWLEFPLVVFAVVGLVAGGLVLLLPETKGKALPETIEDAEKMQRPRKKKEKRIYLQVKKAELS
notes: full open reading frame
B4: mMate2 (Mus musculus) (protein)
chain: T1 sequence (Q3V050 1-573)

Assays:
mMate2 = biological target: T1, mMate2; experiment: inhibition of [3H]MPP+ uptake in mMate2-HEK293 cells at […]; type: cell-based
[1] = substrate: O=C(O[C@H]1C[C@H]2CC[C@@H](C1)[N+]21CCCC1)C(O)(c1ccccc1)c1ccccc1; experiment: [3H]trospium uptake in stably transfected HEK293 cells, Michaelis-Menten (Km); type: cell-based, Mus musculus
[2] = substrate: C[n+]1ccc(-c2ccccc2)cc1; experiment: cells, lysate or membranes

Row | Molecule | inhibition of [3H]MPP+ uptake in mMate2-HEK293 cells at 10 and 100 μM (mMate2) | Km [1] [µM] | further results
1 | CC[N+](CC)(CC)CC [tetraethylammonium] | mMate2 was significantly inhibited by tetraethylammonium (TEA), topotecan, acyclovir, and levofloxacin |  | 
2 | CC[C@@]1(O)C(=O)OCc2c1cc1n(c2=O)Cc2cc3c(CN(C)C)c(O)ccc3nc2-1 [topotecan] | mMate2 was significantly inhibited by tetraethylammonium (TEA), topotecan, acyclovir, and levofloxacin |  | 
3 | C[C@H]1COc2c(N3CCN(C)CC3)c(F)cc3c(=O)c(C(=O)O)cn1c23 [levofloxacin] | mMate2 was significantly inhibited by tetraethylammonium (TEA), topotecan, acyclovir, and levofloxacin |  | 
4 | Nc1nc2c(ncn2COCCO)c(=O)[nH]1 [acyclovir] | mMate2 was significantly inhibited by tetraethylammonium (TEA), topotecan, acyclovir, and levofloxacin |  | 
5 | B1 |  | 29.3 ± 6.7 | 
6 | B2 |  | 58.7 ± 15.5 | 
7 | B3 |  | 78.5 ± 25.9 | 
8 | B4 |  |  | Km [2]: 60.0 ± 5.6 µM
